Results as given in PubChem BioAssay AID2060885 (Molecular Pharmacology Branch, DTP, NCI, 2025).
“And” between values parts separate entries of the source, which are not always exact repeats. Identical values can stand only once.

Test system: NCI-H23 complex spheroids with HUVEC/MSC, viability
Test: Anticancer human tumor NCI-H23 cell line growth inhibition [RAS];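 also: spheroids exposed to compound for 7 days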;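 as to viability, T/C: 100% = DMSO vehicle control viability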
Conditions: for viability, T/C: stronger effect = lower value
Outline: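 Agents were tested in combination matrices in half-log decrements from a top concentration at or near clinical Cmax (10 microM if undetermined). Targets were multi-cell spheroids of tumour lines plus HUVEC and MSC stromal cells.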

[1] = curve of first compound, second compound 0.0316 µM
[2] = curve of first compound, second compound 0.1 µM
[3] = curve of first compound, second compound 0.316 µM
[4] = curve of first compound, second compound 1 µM
[5] = curve of first compound, second compound 3.16 µM
[6] = curve of first compound, second compound 10 µM

Nc1ccn(C2OC(CO)C(O)C2(F)F)c(=O)n1 (stereo not given) + C#Cc1c(F)ccc2cc(O)cc(-c3ncc4c(N5CC6CCC(C5)N6)nc(OCC56CCCN5CC(F)C6)nc4c3F)c12
IC50 [1]: 5.53 nM
IC50 [2]: 5.82 nM
IC50 [3]: 5.83 nM
IC50 [4]: 4.97 nM
IC50 [5]: < 3.16 nM
IC50 [6]: < 3.16 nM
viability, T/C (second compound 0.0316 µM, first compound 0.00316 µM): 79.1%
viability, T/C (second compound 0.0316 µM, first compound 0.01 µM): 19.3%
viability, T/C (second compound 0.0316 µM, first compound 0.0316 µM): 9.28%
viability, T/C (second compound 0.0316 µM, first compound 0.1 µM): 9.72%
viability, T/C (second compound 0.0316 µM, first compound 0.316 µM): 8.73%
viability, T/C (second compound 0.0316 µM, first compound 1 µM): 9.82%
viability, T/C (second compound 0.1 µM, first compound 0.00316 µM): 86.3%
viability, T/C (second compound 0.1 µM, first compound 0.01 µM): 17.8%
viability, T/C (second compound 0.1 µM, first compound 0.0316 µM): 8.54%
viability, T/C (second compound 0.1 µM, first compound 0.1 µM): 7.52%
viability, T/C (second compound 0.1 µM, first compound 0.316 µM): 10.5%
viability, T/C (second compound 0.1 µM, first compound 1 µM): 8.63%
viability, T/C (second compound 0.316 µM, first compound 0.00316 µM): 88.8%
viability, T/C (second compound 0.316 µM, first compound 0.01 µM): 15.8%
viability, T/C (second compound 0.316 µM, first compound 0.0316 µM): 7.89%
viability, T/C (second compound 0.316 µM, first compound 0.1 µM): 5.29%
viability, T/C (second compound 0.316 µM, first compound 0.316 µM): 6.95%
viability, T/C (second compound 0.316 µM, first compound 1 µM): 7.88%
viability, T/C (second compound 1 µM, first compound 0.00316 µM): 74.8%
viability, T/C (second compound 1 µM, first compound 0.01 µM): 12.1%
viability, T/C (second compound 1 µM, first compound 0.0316 µM): 4.25%
viability, T/C (second compound 1 µM, first compound 0.1 µM): 5%
viability, T/C (second compound 1 µM, first compound 0.316 µM): 5.26%
viability, T/C (second compound 1 µM, first compound 1 µM): 7.16%
viability, T/C (second compound 3.16 µM, first compound 0.00316 µM): 45.2%
viability, T/C (second compound 3.16 µM, first compound 0.01 µM): 5.88%
viability, T/C (second compound 3.16 µM, first compound 0.0316 µM): 3.82%
viability, T/C (second compound 3.16 µM, first compound 0.1 µM): 2.55%
viability, T/C (second compound 3.16 µM, first compound 0.316 µM): 3.3%
viability, T/C (second compound 3.16 µM, first compound 1 µM): 3.59%
viability, T/C (second compound 10 µM, first compound 0.00316 µM): 23.2%
viability, T/C (second compound 10 µM, first compound 0.01 µM): 5.01%
viability, T/C (second compound 10 µM, first compound 0.0316 µM): 4.01%
viability, T/C (second compound 10 µM, first compound 0.1 µM): 2.92%
viability, T/C (second compound 10 µM, first compound 0.316 µM): 3.19%
viability, T/C (second compound 10 µM, first compound 1 µM): 3.79%

CC(C)NCC(C(=O)N1CCN(c2ncnc3c2C(C)CC3O)CC1)c1ccc(Cl)cc1 (stereo not given)
viability, T/C (compound 0.0316 µM): 103% [middle of 4 runs]
viability, T/C (compound 0.1 µM): 97.1% [middle of 4 runs]
viability, T/C (compound 0.316 µM): 102% [middle of 4 runs]
viability, T/C (compound 1 µM): 93.3% [middle of 4 runs]
viability, T/C (compound 3.16 µM): 73.3% [middle of 4 runs]
IC50 (curve of compound): > 10000 nM and 9190 nM and 9740 nM

C=CC(=O)N1CCN(c2nc(OCC3CCCN3C)nc3c(F)c(-c4nc(N)cc(C)c4C(F)(F)F)c(Cl)cc23)C(C)C1 (stereo not given)
viability, T/C (compound 0.00316 µM): 61.5% [middle of 12 runs]
viability, T/C (compound 0.01 µM): 48.4% [middle of 12 runs]
viability, T/C (compound 0.0316 µM): 39.9% [middle of 12 runs]
viability, T/C (compound 0.1 µM): 38.5% [middle of 12 runs]
viability, T/C (compound 0.316 µM): 38.3% [middle of 12 runs]
viability, T/C (compound 1 µM): 37.2% [middle of 12 runs]
IC50 (compound alone, run of 07/15/2024): 9 nM [middle of 8 runs]
IC50 (curve of compound): 8.5 nM and < 3.16 nM and 7.59 nM

CCn1c(-c2cc(N3CCN(C)CC3)cnc2C(C)OC)c2c3cc(ccc31)-c1csc(n1)CC(NC(=O)C1CC1C)C(=O)N1CCCC(N1)C(=O)OCC(C)(C)C2 (stereo not given)
viability, T/C (compound 0.000949 µM): 45.5% [middle of 8 runs]
viability, T/C (compound 0.003 µM): 36.2% [middle of 8 runs]
viability, T/C (compound 0.00949 µM): 32.6% [middle of 8 runs]
viability, T/C (compound 0.03 µM): 29.9% [middle of 8 runs]
viability, T/C (compound 0.0949 µM): 22.1% [middle of 8 runs]
viability, T/C (compound 0.3 µM): 19.5% [middle of 8 runs]
IC50 (compound alone, run of 07/09/2024): < 0.949 nM

C=CC(=O)Nc1cc(Nc2nccc(-c3cn(C)c4ccccc34)n2)c(OC)cc1N(C)CCN(C)C
viability, T/C (compound 0.00316 µM): 109% (2×) and 103% and 107%
viability, T/C (compound 0.01 µM): 105% [middle of 4 runs]
viability, T/C (compound 0.0316 µM): 102% [middle of 4 runs]
viability, T/C (compound 0.316 µM): 107% [middle of 4 runs]
IC50 (curve of compound): > 1000 nM

CC1(C)CCC(Nc2ncc(C(F)(F)F)c(-c3c[nH]c4c(P(C)(C)=O)c(C#N)ccc34)n2)CN1 (stereo not given) + C#Cc1c(F)ccc2cc(O)cc(-c3ncc4c(N5CC6CCC(C5)N6)nc(OCC56CCCN5CC(F)C6)nc4c3F)c12
IC50 [1]: 25.3 nM
IC50 [2]: > 300 nM
IC50 [3]: 13.3 nM
IC50 [4]: 5.95 nM
IC50 [5]: < 0.949 nM
IC50 [6]: < 0.949 nM
viability, T/C (second compound 0.0316 µM, first compound 0.000949 µM): 77.4%
viability, T/C (second compound 0.0316 µM, first compound 0.003 µM): 95.5%
viability, T/C (second compound 0.0316 µM, first compound 0.00949 µM): 64.1%
viability, T/C (second compound 0.0316 µM, first compound 0.03 µM): 46.9%
viability, T/C (second compound 0.0316 µM, first compound 0.0949 µM): 42.9%
viability, T/C (second compound 0.0316 µM, first compound 0.3 µM): 53%
viability, T/C (second compound 0.1 µM, first compound 0.000949 µM): 105%
viability, T/C (second compound 0.1 µM, first compound 0.003 µM): 87.7%
viability, T/C (second compound 0.1 µM, first compound 0.00949 µM): 60.6%
viability, T/C (second compound 0.1 µM, first compound 0.03 µM): 46.7%
viability, T/C (second compound 0.1 µM, first compound 0.0949 µM): 44.5%
viability, T/C (second compound 0.1 µM, first compound 0.3 µM): 59.2%
viability, T/C (second compound 0.316 µM, first compound 0.000949 µM): 82.9%
viability, T/C (second compound 0.316 µM, first compound 0.003 µM): 75.6%
viability, T/C (second compound 0.316 µM, first compound 0.00949 µM): 52.2%
viability, T/C (second compound 0.316 µM, first compound 0.03 µM): 44.8%
viability, T/C (second compound 0.316 µM, first compound 0.0949 µM): 35.6%
viability, T/C (second compound 0.316 µM, first compound 0.3 µM): 40.8%
viability, T/C (second compound 1 µM, first compound 0.000949 µM): 83.2%
viability, T/C (second compound 1 µM, first compound 0.003 µM): 60.8%
viability, T/C (second compound 1 µM, first compound 0.00949 µM): 42.7%
viability, T/C (second compound 1 µM, first compound 0.03 µM): 38.2%
viability, T/C (second compound 1 µM, first compound 0.0949 µM): 39%
viability, T/C (second compound 1 µM, first compound 0.3 µM): 36.8%
viability, T/C (second compound 3.16 µM, first compound 0.000949 µM): 45%
viability, T/C (second compound 3.16 µM, first compound 0.003 µM): 37.9%
viability, T/C (second compound 3.16 µM, first compound 0.00949 µM): 33%
viability, T/C (second compound 3.16 µM, first compound 0.03 µM): 28.4%
viability, T/C (second compound 3.16 µM, first compound 0.0949 µM): 33%
viability, T/C (second compound 3.16 µM, first compound 0.3 µM): 31.4%
viability, T/C (second compound 10 µM, first compound 0.000949 µM): 29.7%
viability, T/C (second compound 10 µM, first compound 0.003 µM): 29.1%
viability, T/C (second compound 10 µM, first compound 0.00949 µM): 25.1%
viability, T/C (second compound 10 µM, first compound 0.03 µM): 21.7%
viability, T/C (second compound 10 µM, first compound 0.0949 µM): 19.3%
viability, T/C (second compound 10 µM, first compound 0.3 µM): 18.4%
